Measured values from patent publication US20250049032A1, “ETHYLENE SIGNALING ACTIVATOR MODULATES ROOT SYSTEM ARCHITECTURE” (Salk Institute for Biological Studies, priority 2021, published 2025).

Tests used:
[1] = tested on: Arabidopsis lateral roots; assay: Time lapse of lateral root angle phenotyping after plate transfer; assay type: in vivo, Arabidopsis thaliana
Protocol: Time lapse of lateral root angle phenotyping. […] Root phenotype images of these plates were acquired by CCD vertical scanners (EPSON Perfection V600 Photo, Seiko Epson CO., Nagano, Japan) every 10 mins over a period of 24 hours using the tool described (Ogura et al., 2022). Root length and lateral root angles were measured using Fiji.

DR5-GFP V2 = DR5-GFP V2 auxin response reporter in roots; assay type: in vivo, Arabidopsis thaliana
Description: LaserMicroscopy. A Zeiss 710 confocal microscope with 20×, 40×, and 63× objectives were used to detect GFP and propidium iodide (PI) fluorescence. A Keyence BZ-X810 microscope with a 20× objective was used to detect bright field images and GFP fluorescence in FIG. 3B, FIG. 8B right panel, FIG. 9C, FIG. 9F.

ARR5 = assay: Expression of immediate-early cytokinin target gene ARR5; assay type: in vivo, Arabidopsis thaliana; details: 10 μM MBZ, 3 h, 6 h or 12 hours
[2] = tested on: etiolated Col-0 seedlings; assay: Measurement of ethylene production by GC-MS; assay type: in vivo, Arabidopsis thaliana; details: 3-days-old etiolated Col-0 seedlings, 10 μM
Protocol: Measurement of ethylene production. […] These vials were incubated at 22° C. for 3 days under dark environment. 500-1000 μL sample of the headspace gas was sampled with an autosampler (TriPlus RSH, Thermo Scientific) and injected into a gas chromatograph (Trace 1310 GC, Thermo Scientific) that was equipped with a HP-PLOTQ column ([…], 320 μm, 20 μm) and a mass spectrometer (TSQ8000 Evo MS, Thermo Scientific), scanning from 25-27.5 m/z. Separations were carried out at 35° C. using He as the carrier gas. The area of the ethylene peak (RT: 4 min) was integrated using Thermo Xcalibur Qual Browser. A calibration curve was generated by varying the injection volume (100 μL, 250 μL, 500 μL, and 1000 μL) of a 10 ppm ethylene standard (in nitrogen), and sample results are expressed as concentrations calculated from linear regression of calibration samples.

MAPK4 = molecular target: T1, MAPK4 (Arabidopsis thaliana, UniProt Q39024); assay: In vitro kinase assay with non-radioactive ATP-γ-S; assay type: biochemical; details: 0, 10, 100 μM MBZ
T1 construct: 6xHis (N); made in house; host or cells: E. coli Rosetta 2 (DE3)pLysS
T1 sequence (Q39024 1-376): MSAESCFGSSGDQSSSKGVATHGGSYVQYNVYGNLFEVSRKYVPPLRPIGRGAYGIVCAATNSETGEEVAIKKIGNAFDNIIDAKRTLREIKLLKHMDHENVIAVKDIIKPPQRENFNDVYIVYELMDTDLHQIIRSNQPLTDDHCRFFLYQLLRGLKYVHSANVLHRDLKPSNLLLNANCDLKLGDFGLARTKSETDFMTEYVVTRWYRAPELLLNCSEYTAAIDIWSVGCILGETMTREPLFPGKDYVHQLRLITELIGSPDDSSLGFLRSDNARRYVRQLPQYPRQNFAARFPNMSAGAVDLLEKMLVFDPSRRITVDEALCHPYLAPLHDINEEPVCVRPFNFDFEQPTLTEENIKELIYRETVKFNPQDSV
Protocol: Protein purification. The CTR1 Kinase domain (540 aa-821 aa) (CTR1-KD) and MAPK4 were cloned into a modified pET28a with 6× His tag at their N-terminal. Proteins were expressed in Rosetta™ 2 (DE3)pLysS Competent Cells. Bacteria was cultured in 30 mL LB media containing 50 μg/mL kanamycin overnight at 37° C., 200 rpm. The culture was transferred into 1 L LB media with kanamycin. After the culture reached to 0.7 to 0.9 at OD 600 nm, 0.4 mM isopropylthiop-D-galactoside (IPTG) was added, and the culture was grown for 22 h at 20° C., 200 rpm. Cells were harvested by centrifugation at 4° C. for 10 mins at 3,000×g. The pellet was washed with 0.9% NaCl and resuspended in 40 mL lysis buffer (50 mM pH 7.5 Tris-HCl, 1 mM EDTA, 100 mM NaCl, 20% glycerol, EDTA-free protease inhibitor cocktail, 10 mM imidazole). […] Protein concentration was measured by their absorbance at 280 nm.
In vitro kinase assay with non-radioactive ATP-7-S. The in vitro kinase assay followed the previous published method ([…]). […] The phosphorylation status of MBP, CTR1-KD and MPK4 were analyzed by western blot using Recombinant Anti-Thiophosphate ester antibody (Abcam, Cat. Ab92570, 1:5000) followed by Goat Anti-Rabbit IgG (H+L)-HRP Conjugate antibody (Bio-Rad, Cat. No. 170-6515, 1:5000). The MBP, CTR1-KD and MPK4 proteins loading amounts were measured by Coomassie Blue R250 staining.

[3] = tested on: Arabidopsis thaliana roots
[4] = 1 μM MBZ, one week after germination
[5] = 8-day-old seedlings, 1 μM MBZ or 10 nM IAA plates

Compound: COC(=O)Nc1nc2ccc(C(=O)c3ccccc3)cc2[nH]1 [MBZ, Mebendazole]
- reversibility of effect on lateral root angles ([1]; 1 μM MBZ, removal): fully reversible
- time to change of GSA in time-lapse experiment ([1]; MBZ treatment): one to four
- time until lateral root tips grow at a distinctly steeper angle upon removal from MBZ ([1]; transfer from 1 μM MBZ back to control conditions, 5 lateral root tips): four
- time until lateral root tips grow at a more horizontal angle ([1]; transfer from DMSO to 1 μM MBZ medium, five lateral root tips): three
- DR5-GFP V2 expression within 3 hours compared to mock (DR5-GFP V2; 10 μM MBZ, 3 h): no increased
- DR5-GFP V2 expression, long-term treatment (DR5-GFP V2; 7-day-old roots grown on 1 μM MBZ plates): induced
- ARR5 expression (ARR5): did not respond
- ethylene production [2]: not detected
- effect on MAPK4 kinase activity compared to CTR1 (MAPK4): much less pronounced
- kinase activity of MPK4 (MAPK4; concentration dependent): inhibited
- decreased root length (in average reduced by) [3, 4]: 37%
- root hair initiation and elongation [3, 4]: increased
- root length of ein2-5 and ein3eil1 mutant plants ([3]; 1.2 μM MBZ): clearly not affected
- root phenotype of Col-0 ([3]; 1.2 μM MBZ): short roots and increased root hair development
- response of etr1-1 and etr1-3 ethylene receptor mutants (root length, GSA) ([3]; 1.2 μM MBZ plates): strongly responded
- lateral root angles of ctr1-1, ein2-5, and ein3eil1 plants ([3]; 2 to 3-weeks-old plants, 1.3 μM MBZ): insensitive
- root elongation [3, 5]: inhibited
- root hair growth [3, 5]: enhanced
- lateral root angle ([3]; MBZ treatment): distinctly increased
- plant growth and development ([3]; in vivo): strongly inhibited plant growth and development
- lateral root gravitropic setpoint angle (GSA) ([3]; two-week-old seedlings grown on 1 μM MBZ plates): approx. 70 °
